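Step 1: Grow cells in 96-well plates. Step 2: Expose to compound for 48 hours at 5 concentrations. Step 3: Interpolate endpoints linearly; if unreached, use highest concentration. At the GI50, growth is halved. TGI denotes the concentration required for complete inhibition of growth.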
Assays:
Assay in all cases: NCI anticancer screen, dose series, 48 h
[1] = tested on: SK-MEL-28 melanoma
[2] = tested on: SF-539 CNS
[3] = tested on: SNB-75 CNS
[4] = tested on: MALME-3M melanoma
[5] = tested on: HT29 colon
[6] = tested on: M14 melanoma
[7] = tested on: SNB-19 CNS
[8] = tested on: COLO 205 colon
[9] = tested on: CAKI-1 renal
[10] = tested on: A498 renal
[11] = tested on: RPMI-8226 leukemia
[12] = tested on: NCI/ADR-RES ovarian
[13] = tested on: SK-MEL-2 melanoma
[14] = tested on: ACHN renal
[15] = tested on: MCF7 breast
[16] = tested on: SF-295 CNS
[17] = tested on: HS 578T breast
[18] = tested on: A549 NSCLC
[19] = tested on: HCT-15 colon
[20] = tested on: LOX IMVI melanoma
[21] = tested on: HCC-2998 colon
[22] = tested on: U251 CNS
[23] = tested on: EKVX NSCLC
[24] = tested on: OVCAR-4 ovarian
[25] = tested on: PC-3 prostate
[26] = tested on: HOP-62 NSCLC
[27] = tested on: CCRF-CEM leukemia
[28] = tested on: KM12 colon
[29] = tested on: T-47D breast
[30] = tested on: SN12C renal
[31] = tested on: NCI-H226 lung
[32] = tested on: NCI-H23 lung
[33] = tested on: SK-OV-3 ovarian
[34] = tested on: SW-620 colon
[35] = tested on: K-562 leukemia
[36] = tested on: UACC-62 melanoma
[37] = tested on: RXF 393 renal
[38] = tested on: OVCAR-8 ovarian
[39] = tested on: UO-31 renal
[40] = tested on: SR leukemia
[41] = tested on: TK-10 renal
[42] = tested on: 786-0 renal
[43] = tested on: BT-549 breast
[44] = tested on: MDA-MB-231 breast
[45] = tested on: NCI-H460 lung
[46] = tested on: OVCAR-3 ovarian
[47] = tested on: NCI-H522 lung
[48] = tested on: OVCAR-5 ovarian
[49] = tested on: SK-MEL-5 melanoma
[50] = tested on: MOLT-4 leukemia
[51] = tested on: MDA-MB-435
[52] = tested on: SF-268 CNS
[53] = tested on: IGROV1 ovarian
[54] = tested on: DU-145 prostate
[55] = tested on: UACC-257 melanoma
[56] = tested on: HCT-116 colon
[57] = tested on: HOP-92 NSCLC
[58] = tested on: HL-60(TB) leukemia

In the case of ClCc1ccc(Cn2cnc3nc(Cl)nc(Cl)c32)cc1, the GI50 [1] is reported as 1860 nM, the TGI [1] is reported as 4000 nM and the GI50 [2] is reported as 593 nM. For the same compound, the TGI [2] was 1140 nM, the GI50 [3] was 656 nM and the TGI [3] was 1480 nM. The GI50 [4] was 1600 nM, the TGI [4] was 3240 nM and the GI50 [5] was 970 nM. The GI50 [6] was 1310 nM, the TGI [6] was 2830 nM and the GI50 [7] was 3010 nM. The GI50 [8] was 5660 nM, the TGI [8] was > 20500 nM and the GI50 [9] was 1500 nM. It also gave a TGI [9] of 2860 nM, a GI50 [10] of 4360 nM and a TGI [10] of 8480 nM. The GI50 [11] was 1680 nM, the TGI [11] was 28300 nM and the GI50 [12] was 1770 nM. The TGI [12] was 3360 nM, the GI50 [13] was 1410 nM and the TGI [13] was 3060 nM. It also gave a GI50 [14] of 523 nM, a TGI [14] of 953 nM and a GI50 [15] of 663 nM. It also gave a TGI [15] of 2360 nM, a GI50 [16] of 1750 nM and a TGI [16] of 3270 nM. It also gave a GI50 [17] of 19200 nM, a TGI [17] of 44800 nM and a GI50 [18] of 1910 nM. It also gave a TGI [18] of 3640 nM, a GI50 [19] of 481 nM and a TGI [19] of 1030 nM. For the same compound, the GI50 [20] was 487 nM, the TGI [20] was 1230 nM and the GI50 [21] was 1620 nM. The TGI [21] was 3180 nM, the GI50 [22] was 772 nM and the TGI [22] was 1960 nM. For the same compound, the GI50 [23] was 704 nM, the TGI [23] was 1880 nM and the GI50 [24] was 1570 nM. For the same compound, the TGI [24] was 3030 nM, the GI50 [25] was 2900 nM and the TGI [25] was 7980 nM. The GI50 [26] was 1980 nM, the TGI [26] was 3740 nM and the GI50 [27] was 1790 nM. The TGI [27] was 6190 nM, the GI50 [28] was 677 nM and the TGI [28] was 1480 nM. For the same compound, the GI50 [29] was 1360 nM, the TGI [29] was 4820 nM and the GI50 [30] was 1410 nM. It also gave a TGI [30] of 3150 nM, a GI50 [31] of 946 nM and a TGI [31] of 2920 nM. The GI50 [32] was 1840 nM, the TGI [32] was 3650 nM and the GI50 [33] was 2360 nM. The TGI [33] was 5700 nM, the GI50 [34] was 1470 nM and the TGI [34] was 3280 nM. The GI50 [35] was 2520 nM, the TGI [35] was > 28800 nM and the GI50 [36] was 974 nM. It also gave a TGI [36] of 2540 nM, a GI50 [37] of 1300 nM and a TGI [37] of 3240 nM. It also gave a GI50 [38] of 1840 nM, a TGI [38] of 3660 nM and a GI50 [39] of 1410 nM. For the same compound, the TGI [39] was 2880 nM, the GI50 [40] was 4160 nM and the TGI [40] was > 100000 nM. For the same compound, the GI50 [41] was 430 nM, the TGI [41] was 932 nM and the GI50 [42] was 417 nM. The TGI [42] was 890 nM, the GI50 [43] was 1870 nM and the TGI [43] was 3480 nM. For the same compound, the GI50 [44] was 444 nM, the TGI [44] was 926 nM and the GI50 [45] was 3650 nM. The TGI [45] was 9190 nM, the GI50 [46] was 687 nM and the TGI [46] was 1450 nM. The GI50 [47] was 1850 nM, the TGI [47] was 4410 nM and the GI50 [48] was 1800 nM. It also gave a TGI [48] of 3540 nM, a GI50 [49] of 801 nM and a TGI [49] of 3750 nM. The GI50 [50] was 1680 nM, the TGI [50] was 5260 nM and the GI50 [51] was 1710 nM. The TGI [51] was 3190 nM, the GI50 [52] was 629 nM and the TGI [52] was 1430 nM. For the same compound, the GI50 [53] was 1370 nM, the TGI [53] was 2720 nM and the GI50 [54] was 444 nM. For the same compound, the TGI [54] was 1120 nM, the GI50 [55] was 1950 nM and the TGI [55] was 4330 nM. It also gave a GI50 [56] of 235 nM and a TGI [56] of 1260 nM.
With Cn1c(=O)c(-c2c(Cl)cccc2Cl)cc2cnc(Nc3ccc(N4CCOCC4)cc3)nc21 the GI50 [1] was 675 nM, the TGI [1] was > 100000 nM and the GI50 [2] was < 45.1 nM. The TGI [2] was 113 nM, the GI50 [3] was < 10 nM and the TGI [3] was 91.6 nM. For the same compound, the GI50 [4] was 19.6 nM, the TGI [4] was 491 nM and the GI50 [5] was < 46.7 nM. For the same compound, the TGI [5] was 1170 nM, the GI50 [6] was < 10 nM and the GI50 [7] was 561 nM. The TGI [7] was > 22600 nM, the GI50 [8] was < 12.5 nM and the TGI [8] was 477 nM. For the same compound, the GI50 [9] was < 10 nM, the TGI [9] was 80.6 nM and the GI50 [10] was < 43.3 nM. It also gave a TGI [10] of 140 nM, a GI50 [11] of 356 nM and a TGI [11] of 1780 nM. The GI50 [12] was 15.8 nM, the TGI [12] was 90 nM and the GI50 [13] was 2480 nM. For the same compound, the TGI [13] was > 100000 nM, the GI50 [15] was 1490 nM and the TGI [15] was > 100000 nM. For the same compound, the GI50 [16] was 200 nM, the TGI [16] was > 100000 nM and the GI50 [18] was 666 nM. The GI50 [19] was 94.4 nM, the TGI [19] was > 100000 nM and the GI50 [20] was 178 nM. For the same compound, the TGI [20] was 1310 nM, the GI50 [21] was 43.1 nM and the TGI [21] was 209 nM. For the same compound, the GI50 [57] was 211 nM, the TGI [57] was 1930 nM and the GI50 [22] was 170 nM. For the same compound, the TGI [22] was 6130 nM, the GI50 [23] was 798 nM and the TGI [23] was > 30900 nM. For the same compound, the GI50 [24] was 404 nM, the TGI [24] was > 100000 nM and the GI50 [58] was 13.7 nM. For the same compound, the TGI [58] was 216 nM, the GI50 [25] was 474 nM and the TGI [25] was > 100000 nM. The GI50 [26] was < 10 nM, the TGI [26] was 124 nM and the GI50 [27] was 27.2 nM. The TGI [27] was 332 nM, the GI50 [28] was 1380 nM and the TGI [28] was 5090 nM. It also gave a GI50 [29] of 598 nM, a TGI [29] of 9770 nM and a GI50 [30] of 129 nM. For the same compound, the TGI [30] was 4650 nM, the GI50 [31] was 74.8 nM and the TGI [31] was > 100000 nM. The GI50 [32] was < 10 nM, the TGI [32] was 310 nM and the GI50 [33] was < 10 nM. The TGI [33] was > 100000 nM, the GI50 [34] was 202 nM and the TGI [34] was > 100000 nM. The GI50 [35] was < 10 nM, the TGI [35] was 53.8 nM and the GI50 [36] was < 13.1 nM. The GI50 [37] was 1360 nM, the TGI [37] was 3860 nM and the GI50 [38] was 1090 nM. The TGI [38] was > 100000 nM, the GI50 [39] was 2290 nM and the TGI [39] was 6660 nM. For the same compound, the GI50 [40] was 140 nM, the TGI [40] was 471 nM and the TGI [41] was 1240 nM. The GI50 [42] was < 10 nM, the TGI [42] was 519 nM and the GI50 [43] was 109 nM. The GI50 [44] was < 16.9 nM, the GI50 [45] was 570 nM and the GI50 [46] was 323 nM. For the same compound, the TGI [46] was > 100000 nM, the GI50 [47] was 20.2 nM and the TGI [47] was 420 nM. The GI50 [48] was 34.9 nM, the TGI [48] was 799 nM and the GI50 [49] was 149 nM. The TGI [49] was 1340 nM, the GI50 [50] was < 47.6 nM and the TGI [50] was 804 nM. For the same compound, the GI50 [52] was 391 nM, the TGI [52] was > 27900 nM and the TGI [53] was 1330 nM. For the same compound, the TGI [55] was > 22400 nM, the GI50 [56] was < 10 nM and the TGI [56] was 148 nM.
